Laboratory results as given in patent US5948791A, “Quinoline derivatives for treating malaria” (Hoffmann-La Roche Inc., priority 1995, dated 1999).
In brackets after ≈: the same amount, converted by molar mass. Read-outs that look alike come from different tables or passages of the source.

What was measured:
[1] = test system: Plasmodium falciparum strain NF54; test: Growth inhibition of Plasmodium falciparum NF54 (chloroquine-sensitive) in vitro, [G-3H]-hypoxanthin incorporation; assay type: cell-based; details: read-out: IC50 for P. falciparum NF54
Source text: (§1) The ratio of the growth inhibition of a strain which is especially resistant to chloroquine and of a strain which is sensitive to chloroquine gives as the "resistance index" a measurement for the absence of a cross-resistance with chloroquine. Since, for all novel compounds the resistance index lies between 0.7 and 2.5, they inhibit the growth of sensitive as well as resistant strains of the malaria pathogen equally effectively. They are accordingly also suitable for the prophylaxis of a malaria disease and also for the treatment of a malaria disease even when chloroquine is ineffective. The good activity against malaria pathogens is also shown in animal experiments. The effective doses measured after oral and subcutaneous administration to mice infected with malaria pathogens are shown in Table 2 hereinafter.
(§2) Test method for the determination of the activity against Plasmodium falciparum in vitro
(§3) The preparations are tested on intraerythrocytary stages of Plasmodium falciparum from asynchronous cultures according to the method of Desjardin et al. (Desjardins, R. E. et al: Quantitative assessment of antimalarial activity in vitro by a semiautomated microdilution technique. Antimicrob. Agents Chemother. 16, 710-718, (1979)).
(§4) The culture medium consists of RPMI 1640 with the addition of 25 mM HEPES, 25 mM NaHCO3, 100 μg/ml neomycin and […] (A^+). Human-A^+ erythrocytes are used as the Plasmodium falciparum host cells. The parasites are maintained at 37° C. in an atmosphere of 3% O2, 4% CO2, 93% N2 and 95% relative humidity.
(§5) In order to determine the activity, the preparations are dissolved in DMSO, pre-diluted in the culture medium to a suitable starting concentration and subsequently titrated-out on to microtitre plates in the 2nd stage over 6-7 steps. After the addition of the parasite culture (0.7% parasitemia in 2.5% erythrocyte suspension) the test plates are incubated under the conditions given above for 72 h. The parasite growth in the different preparation concentrations is determined using [G-^3 H]-hypoxanthin incorporation compared to untreated control cultures on the same test plates. The 50% growth inhibition (IC50) is calculated according to logit regression analysis from the resulting dosage-activity curve.
(§6) The preparations are tested on at least one chloroquine-resistant and one chloroquine-sensitive Plasmodium falciparum strain. Additional sensitive and resistant strains are included for further characterization.

Plasmodium falciparum K1 = test: Growth inhibition of Plasmodium falciparum K1 (chloroquine-resistant) in vitro, [G-3H]-hypoxanthin incorporation; assay type: cell-based, Plasmodium falciparum (strain K1); details: for IC50: Plasmodium falciparum, K1, 72 h, read-out: IC50 for P. falciparum K1; for Resistance index: ratio of the IC50 for K1 and the IC50 for NF54
Source text: as §1, §2, §3, §4, §5, §6

Plasmodium berghei = test: animal or person; assay type: in vivo, Plasmodium berghei (strain ANKA) in mice; details: Plasmodium berghei
Procedure: Test method for the determination of the activity against Plasmodium berghei in vivo
The preparations are tested on mice infected with malaria pathogens (Plasmodium berghei). Male albino mice (IBM:MORO(SPF), FUELLINSDORF) weighing about 25 g are used as the test animals. They are kept in climatized rooms at 21-22° C. in groups of 5 animals per cage. They receive ad libitum a diet feed with a low PABA content (NAFAG FUTTER " No. 9009 PAB-45, PABA content 45 mg/kg) and drinking water. On the first day of the test (D0) the test animals are infected with Plasmodium berghei (strain ANKA). For this there is used heparinized blood of a donor mouse with about 30% parasitemia, which is diluted with physiological saline such that it contains 10^8 parasitized erythrocytes per ml. 0.2 ml of this suspension is injected intravenously (i.v.) into the mice to be treated and into the control mice.
The substances to be tested are dissolved or suspended in distilled water or in a mixture of 7% Tween 80, 3% alcohol (96%) and water. Usually, 0.25 ml of this solution or suspension is administered once subcutaneously and perorally to groups of 5 test animals. Treatment is effected 24 hours after the infection. 10 control animals are treated in the same manner with solvent or suspension medium per test.
All substances are tested in a first test in a single dosage of 10 mg/kg. Only those substances which in this test (10 mg/kg) have shown a parasitaemia reduction of 90% are used for the titration. Suitable dilutions of the test substance can be used to obtain an accurate titration of the activity.
48 hours after the treatment (D+3) blood smears are prepared from all animals using blood from tail veins and are stained with giemsa. […] The difference in the average values of the infection rates of control group (100%) and treated groups is calculated and expressed as a percentage reduction (GI%). The ED50 or ED90 is determined mathematically by means of the JMP programme (nonlinear fit). The ED50 (ED90) in mg/kg is that dose which after single administration reduces the average erythrocyte infection rate by 50% (90%) in comparison to the control group.

[2] = chloroquine-sensitive strain NF54, 72 h
[3] = po, single peroral dose of 10 mg/kg, mice, blood smears 48 h after treatment, read-out: Growth inhibition in % after po administration (GI%, percentage reduction of the parasitemia)
[4] = sc, single subcutaneous dose of 10 mg/kg, mice, blood smears 48 h after treatment, read-out: Growth inhibition in % after sc administration (GI%, percentage reduction of the parasitemia)

Structure (SMILES) | IC50 ([1]; NF54, 72 h) [µg/mL] | IC50 (Plasmodium falciparum K1) [µg/mL] | Resistance index (Plasmodium falciparum K1) | inhibition in vivo at 10 mg/kg (Plasmodium berghei; in Mus musculus, po, 48 h, read-out: Growth inhibition in % after po administration (GI%, percentage reduction of the parasitemia)) [%] | inhibition in vivo at 10 mg/kg (Plasmodium berghei; in Mus musculus, sc, 48 h, read-out: Growth inhibition in % after sc administration (GI%, percentage reduction of the parasitemia)) [%] | IC50 [1, 2] [µg/mL] | inhibition in vivo at 10 mg/kg (Plasmodium berghei; [3]) [%] | inhibition in vivo at 10 mg/kg (Plasmodium berghei; [4]) [%]
CCN(CC)CCCC(C)Nc1ccnc2cc(Cl)ccc12 (stereo not drawn) [Chloroquine diphosphate, reference compound] | 0.0067 | 0.095 | 14.2 | 99.9 | 99.9 |  |  | 
CC(C)(CNc1ccnc2cc(Cl)ccc12)NCc1ccc(Cl)c(Cl)c1 [Example 3, N1-(7-Chloro-quinolin-4-yl)-N2-(3,4-dichloro-benzyl)-2-methyl-propane-1,2-diamine] |  | 0.0183 (≈ 0.0448 µM) | 1.3 |  |  | 0.0137 (≈ 0.0335 µM) | 96 | 8
CC(C)(CNc1ccnc2cc(Cl)ccc12)NCc1cccc(Cl)c1 [Example 4, N1-(7-Chloro-quinolin-4-yl)-N2-(3-chloro-benzyl)-2-methyl-propane-1,2-diamine] |  | 0.0088 (≈ 0.0235 µM) | 1.0 |  |  | 0.0091 (≈ 0.0243 µM) | 68 | 73
CC(C)(CNc1ccnc2cc(Cl)ccc12)NCc1ccc(Cl)cc1Cl [Example 5, N1-(7-Chloro-quinolin-4-yl)-N2-(2,4-dichloro-benzyl)-2-methyl-propane-1,2-diamine] |  | 0.0572 (≈ 0.14 µM) | 1.2 |  |  | 0.0493 (≈ 0.121 µM) | 83 | 69
CC(C)(CNc1ccnc2cc(Cl)ccc12)NCc1ccc(F)c(Cl)c1 [Example 6, N1-(7-Chloro-quinolin-4-yl)-N2-(3-chloro-4-fluoro-benzyl)-2-methyl-propane-1,2-diamine] |  | 0.0145 (≈ 0.037 µM) | 1.4 |  |  | 0.0103 (≈ 0.0263 µM) | 99.7 | 95
CC(C)(CNc1ccnc2cc(Cl)ccc12)NCc1ccc(Cl)c(C(F)(F)F)c1 [Example 7, N1-(7-Chloro-quinolin-4-yl)-N2-(4-chloro-3-trifluoromethyl-benzyl)-2-methyl-propane-1,2-diamine] |  | 0.0349 (≈ 0.0789 µM) | 1.5 |  |  | 0.024 (≈ 0.0543 µM) | 96 | 54
CC(C)(CNc1ccnc2cc(Cl)ccc12)NCc1cccc(C(F)(F)F)c1 [Example 8, N1-(7-Chloro-quinolin-4-yl)-N2-(3-trifluoromethyl-benzyl)-2-methyl-propane-1,2-diamine] |  | 0.0189 (≈ 0.0463 µM) | 1.2 |  |  | 0.0161 (≈ 0.0395 µM) | 99 | 95
CC(C)(CNc1ccnc2cc(Cl)ccc12)NCc1ccc(C(F)(F)F)cc1 [Example 9, N1-(7-Chloro-quinolin-4-yl)-N2-(4-trifluoromethyl-benzyl)-2-methyl-propane-1,2-diamine] |  | 0.0167 (≈ 0.0409 µM) | 1.3 |  |  | 0.0132 (≈ 0.0324 µM) | 66 | 74
CC(C)(CNc1ccnc2cc(Cl)ccc12)NCc1cc(C(F)(F)F)cc(C(F)(F)F)c1 [Example 10, N1-(7-Chloro-quinolin-4-yl)-N2-(3,5-bis-trifluoromethyl-benzyl)-2-methyl-propane-1,2-diamine] |  | 0.0504 (≈ 0.106 µM) | 1.0 |  |  | 0.0517 (≈ 0.109 µM) | 99.2 | 99.3
CC(C)(CNc1ccnc2cc(Cl)ccc12)NCc1ccncc1 [Example 11, N1-(7-Chloro-quinolin-4-yl)-N2-(pyridin-4-yl-methyl)-2-methyl-propane-1,2-diamine] |  | 0.048 (≈ 0.141 µM) | 1.6 |  |  | 0.0293 (≈ 0.086 µM) | 99.9 | 99.8
CC(C)(CNc1ccnc2cc(Cl)ccc12)NCc1c(Cl)cccc1Cl [Example 12, N1-(7-Chloro-quinolin-4-yl)-N2-(2,6-dichloro-benzyl)-2-methyl-propane-1,2-diamine] |  | 0.197 (≈ 0.482 µM) | 2.3 |  |  | 0.0847 (≈ 0.207 µM) | 98 | 4
Cl.Cl.Clc1ccc2c(N[C@H]3CC[C@@H](NCCc4ccccc4)CC3)ccnc2c1 [Example 13, cis-N1-(7-Chloro-quinolin-4-yl)-N4-phenethyl-cyclohexane-1,4-diamine dihydrochloride] |  | 0.0161 | 6.0 |  |  | 0.0027 | 99.9 | 99.9
COc1cc(OC)c(CN[C@H]2CC[C@@H](Nc3ccnc4cc(Cl)ccc34)CC2)c(OC)c1.Cl.Cl [Example 14, cis-N1-(7-Chloro-quinolin-4-yl)-N4-(2,4,6-trimethoxy-benzyl)-cyclohexane-1,4-diamine dihydrochloride] |  | 0.0284 | 5.9 |  |  | 0.0048 | 100 | 100
Cl.Cl.Clc1ccc2c(N[C@H]3CC[C@@H](NCc4c(Cl)cccc4Cl)CC3)ccnc2c1 [Example 15, cis-N1-(7-Chloro-quinolin-4-yl)-N4-(2,6-dichloro-benzyl)-cyclohexane-1,4-diamine dihydrochloride] |  | 0.0147 | 3.4 |  |  | 0.0043 |  | 92
COc1cccc(OC)c1CN[C@H]1CC[C@@H](Nc2ccnc3cc(Cl)ccc23)CC1.Cl.Cl [Example 16, cis-N1-(7-Chloro-quinolin-4-yl)-N4-(2,6-dimethoxy-benzyl)-cyclohexane-1,4-diamine dihydrochloride] |  | 0.017 | 8.5 |  |  | 0.002 | 99.8 | 99.9
Cl.Cl.Clc1ccc2c(N[C@H]3CC[C@@H](NCc4c(Cl)ccc(Cl)c4Cl)CC3)ccnc2c1 [Example 17, cis-N1-(7-Chloro-quinolin-4-yl)-N4-(2,3,6-trichloro-benzyl)-cyclohexane-1,4-diamine dihydrochloride] |  | 0.0174 | 2.8 |  |  | 0.0064 | 32 | 87
COc1cc(O)c(CN[C@H]2CC[C@@H](Nc3ccnc4cc(Cl)ccc34)CC2)c(OC)c1.Cl.Cl [Example 18, cis-2-{[4-(7-Chloro-quinolin-4-ylamino)-cyclohexylamino]-methyl}-3,5-dimethoxy-phenol dihydrochloride] |  | 0.021 | 3.8 |  |  | 0.0055 | 100 | 100
